Data as given in patent US12653191B2, “Active compound combinations” (Bayer Aktiengesellschaft, priority 2020, dated 2026).
Where “and” joins values, the source holds several entries; their conditions need not be identical. Equal values may be shown once. Read-outs that look alike come from different tables or passages of the source.

Experiments:
[1] = test system: Colletotrichum lindemuthianum; assay: in vitro-Test with fungal microorganisms, Method A (tables D1-D8); assay type: cell-based
Description: (§1) Example: In Vitro-Test with Fungal Microorganisms
(§2) Wells of 96-well microtiter plates are filled with 10 μl of a preparation of test compound or compound combination in methanol+emulsifier alkylaryl-polyglycol-ether. Thereafter, the solvent is evaporated in a hood. At the next step, 100 μl of liquid potato dextrose medium is given into each well, that has been amended with an appropriate concentration of spores or mycelium suspension of the test fungus.
(§3) With the aid of a photometer, the extinction in all wells is measured at the wavelength of 620 nm.
(§4) The microtiter plates are incubated at 20° C. and 85% relative humidity. The inhibition of growth is determined again photometrically 3-5 days after the application. Efficacy is calculated in relation to the untreated control, 0% efficacy means fungal growth as high as in untreated control while 100% efficacy means no fungal growth is measured.
(§5) The data in tables A1 to A12, B1 to B14, C1 to C10, D1 to D8, E1 to E8, F1 to F11, G1 to G4, H1 to H4 and I1 to I5 were collected according to Method A. The data in tables A13 to A22, B15 to B18, C11 to C20, E9 to E16, F12 to F15, G5 to G15, H5 to H8, I6 to I11 and J1 to J11 were collected according to Method B.

Alternaria alternate = assay: in vitro-Test with fungal microorganisms, Method A (tables A1-A12); assay type: cell-based, Alternaria alternata; conditions: applied alone
Description: as §1, §2, §3, §4, §5

Diaporthe citri = assay: in vitro-Test with fungal microorganisms, Method A (tables F1-F11); assay type: cell-based; conditions: applied alone
Description: as §1, §2, §3, §4, §5

Cordana musae [2] = assay: in vitro-Test with fungal microorganisms, Method A (tables E1-E8); assay type: cell-based
Description: as §1, §2, §3, §4, §5

Botrytis cinerea [3] = assay: in vitro-Test with fungal microorganisms, Method A (tables B1-B14); assay type: cell-based
Description: as §1, §2, §3, §4, §5

Fusarium culmorum [4] = assay: in vitro-Test with fungal microorganisms, Method A (tables G1-G4); assay type: cell-based; conditions: alone
Description: as §1, §2, §3, §4, §5

Cordana musae [5] = assay: in vitro-Test with fungal microorganisms, Method B (tables E9-E16); assay type: cell-based; conditions: for Efficacy: single active; for Efficacy %: single substance
Description: as §1
(§6) Wells of 96-well microtiter plates are filled with 30 μl of a preparation of test compound or compound combination in methanol+emulsifier alkylaryl-polyglycol-ether. Thereafter, the solvent is evaporated in a hood. At the next step, 200 μl of liquid growth medium is given, that has been amended with an appropriate concentration of spores or mycelium suspension of the test fungus.
(§7) With the aid of a photometer, the extinction in all wells is measured at the wavelength of 600 nm.
(§8) The microtiter plates are incubated for 3 to 7 days at 20° C. and 85% relative humidity. After the incubation inhibition of growth is determined photometrically. Efficacy is calculated in relation to the untreated control, 0% efficacy means fungal growth as high as in untreated control while 100% efficacy means no fungal growth is measured.
as §5

[6] = test system: Ustilago segetum var. avenae; assay: in vitro-Test with fungal microorganisms, Method B (tables I6-I11); assay type: cell-based
Description: as §1, §6, §7, §8, §5

[7] = test system: Ustilago segetum var. avenae; assay: in vitro-Test with fungal microorganisms, Method A (tables I1-I5); assay type: cell-based; conditions: alone
Description: as §1, §2, §3, §4, §5

Cercospora beticola [8] = assay: in vitro-Test with fungal microorganisms, Method A (tables C1-C10); assay type: cell-based
Description: as §1, §2, §3, §4, §5

Alternaria alternata = assay: in vitro-Test with fungal microorganisms, Method B (tables A13-A22); assay type: cell-based; conditions: single compound
Description: as §1, §6, §7, §8, §5

Fusarium culmorum [9] = assay: in vitro-Test with fungal microorganisms, Method B (tables G5-G15); assay type: cell-based
Description: as §1, §6, §7, §8, §5

Botrytis cinerea [10] = assay: in vitro-Test with fungal microorganisms, Method B (tables B15-B18); assay type: cell-based
Description: as §1, §6, §7, §8, §5

Cercospora beticola [11] = assay: in vitro-Test with fungal microorganisms, Method B (tables C11-C20); assay type: cell-based
Description: as §1, §6, §7, §8, §5

Colletotrichum coccodes = assay: in vitro-Test with fungal microorganisms, Method B (tables J1-J11); assay type: cell-based
Description: as §1, §6, §7, §8, §5

[12] = Botrytis cinerea, read-out: Efficacy
[13] = Botrytis cinerea, alone, read-out: Efficacy %
[14] = single active compound, 0.04 ppm
[15] = single active compound, 0.2 ppm

CCN(C)C=Nc1cc(C)c(Oc2ccccc2F)cc1Cl [(15.064), N′-[2-chloro-4-(2-fluorophenoxy)-5-methylphenyl]-N-ethyl-N-methylimidoformamide]
inhibition of growth at 0.08 ppm ([1]; Colletotrichum lindemuthianum, mixing partner alone, 0.08 ppm, read-out: Efficacy %): 16%
inhibition of growth at 0.4 ppm ([1]; Colletotrichum lindemuthianum, mixing partner alone, 0.4 ppm, read-out: Efficacy %): 0%
inhibition of growth at 2 ppm ([1]; Colletotrichum lindemuthianum, mixing partner alone, 2.0 ppm, read-out: Efficacy %): 0%
inhibition of growth at 0.08 ppm (Alternaria alternate; Alternaria, 0.08 ppm, read-out: Efficacy %): 2%
inhibition of growth at 0.4 ppm (Alternaria alternate; Alternaria, 0.4 ppm, read-out: Efficacy %): 5%
inhibition of growth at 2 ppm (Alternaria alternate; Alternaria, 2.0 ppm, read-out: Efficacy %): 12%
inhibition of growth at 10 ppm (Alternaria alternate; Alternaria, 10.0 ppm, read-out: Efficacy %): 50%
inhibition of growth at 2 ppm (Diaporthe citri; Diaporthe citri, 2.0 ppm, read-out: Efficacy): 0%
inhibition of growth at 10 ppm (Diaporthe citri; Diaporthe citri, 10.0 ppm, read-out: Efficacy): 0%
inhibition of growth at 0.4 ppm (Cordana musae [2]; Neocordana musae, mixing partner alone, 0.4 ppm, read-out: Efficacy %): 0%
inhibition of growth at 2 ppm (Cordana musae [2]; Neocordana musae, mixing partner alone, 2.0 ppm, read-out: Efficacy %): 0%
inhibition of growth at 10 ppm (Cordana musae [2]; Neocordana musae, mixing partner alone, 10.0 ppm, read-out: Efficacy %): 27%
inhibition of growth at 0.08 ppm (Botrytis cinerea [3]; [12]): 5%
inhibition of growth at 0.4 ppm (Botrytis cinerea [3]; Botrytis cinerea, 0.4 ppm, read-out: Efficacy): 21%
inhibition of growth at 2 ppm (Botrytis cinerea [3]; [12]): 2%
inhibition of growth at 0.08 ppm (Botrytis cinerea [3]; [13]): 9%
inhibition of growth at 2 ppm (Botrytis cinerea [3]; [13]): 5%
inhibition of growth at 2 ppm (Fusarium culmorum [4]; Fusarium culmorum, 2.0 ppm, read-out: Efficacy): 0%
inhibition of growth at 10 ppm (Fusarium culmorum [4]; Fusarium culmorum, 10.0 ppm, read-out: Efficacy): 1%

CCO[PH](=O)[O-].CCO[PH](=O)[O-].CCO[PH](=O)[O-].[Al+3] [fosetylaluminium]
Efficacy (Fusarium culmorum [4]; 0.8 ppm): 7%
Efficacy (Fusarium culmorum [4]; 4.0 ppm): 0%
Efficacy (Fusarium culmorum [4]; 20.0 ppm): 5%
Efficacy (Fusarium culmorum [4]; 100.0 ppm): 9%

CC(C)c1ccc(Cl)cc1CN(C(=O)c1c(C(F)F)nn(C)c1F)C1CC1 [(2.038) isoflucypram, isoflucypram]
Efficacy (Cordana musae [5]; 0.2 ppm): 9%
Efficacy (Cordana musae [5]; 1 ppm): 20%
Efficacy % ([6]; 0.008 ppm): 9%
Efficacy % ([6]; 0.04 ppm): 17%
Efficacy % ([6]; 0.2 ppm): 100%
Efficacy % ([6]; alone, 0.008 ppm): 2%
Efficacy % ([6]; alone, 0.04 ppm): 5%
Efficacy % ([6]; alone, 0.2 ppm): 100%
Efficacy % ([7]; 0.008 ppm): 6% and 0%
Efficacy % ([7]; 0.2 ppm): 100%
Efficacy % ([7]; 1.0 ppm): 100%
Efficacy % ([1]; single active at 0.008 ppm): 0%
Efficacy % ([1]; single active at 0.04 ppm): 14%
Efficacy % ([1]; single active at 0.2 ppm): 0%
Efficacy % ([1]; single active at 1.0 ppm): 18%
Efficacy % (Cercospora beticola [8]; 0.008 ppm alone): 10%
Efficacy % (Cercospora beticola [8]; 0.04 ppm alone): 0%
Efficacy % (Cercospora beticola [8]; 0.2 ppm alone): 44%
Efficacy % (Cercospora beticola [8]; 1.0 ppm alone): 69%
Efficacy (Alternaria alternata; 0.008 ppm): 22%
Efficacy (Alternaria alternata; 1 ppm): 77%
Efficacy % (Alternaria alternate; 0.008 ppm): 43% and 52%
Efficacy % (Alternaria alternate; 0.04 ppm): 70% and 71% and 74%
Efficacy % (Alternaria alternate; 0.2 ppm): 77% and 85% and 83%
Efficacy % (Alternaria alternate; 1.0 ppm): 82% and 84%
Efficacy (Fusarium culmorum [9]; 0.008 ppm alone): 0%
Efficacy (Fusarium culmorum [9]; 0.04 ppm alone): 0%
Efficacy (Fusarium culmorum [9]; 0.2 ppm alone): 10%
Efficacy (Fusarium culmorum [9]; 1 ppm alone): 24%
Efficacy (Fusarium culmorum [9]; [14]): 10%
Efficacy (Fusarium culmorum [9]; [15]): 19% and 20%
Efficacy % (Botrytis cinerea [10]; 0.2 ppm alone): 53%
Efficacy % (Botrytis cinerea [10]; 1 ppm alone): 70%
Efficacy (Diaporthe citri; 0.008 ppm): 0%
Efficacy (Diaporthe citri; 0.04 ppm): 0%
Efficacy (Diaporthe citri; 1.0 ppm): 30% and 38%
Efficacy % (Cordana musae [2]; mixing partner alone, 0.008 ppm): 0%
Efficacy % (Cordana musae [2]; mixing partner alone, 0.04 ppm): 0%
Efficacy % (Cordana musae [2]; mixing partner alone, 0.2 ppm): 0%
Efficacy % (Cordana musae [2]; mixing partner alone, 1.0 ppm): 0%
Efficacy % (Cordana musae [2]; single substance, 0.008 ppm): 0%
Efficacy % (Cordana musae [2]; single substance, 0.04 ppm): 0%
Efficacy % (Cordana musae [2]; single substance, 0.2 ppm): 0% and 1%
Efficacy % (Cordana musae [2]; single substance, 1.0 ppm): 22% and 27%
Efficacy (Botrytis cinerea [3]; 1.0 ppm): 75%
Efficacy % (Botrytis cinerea [3]; alone, 0.008 ppm): 5%
Efficacy % (Botrytis cinerea [3]; alone, 0.04 ppm): 53%
Efficacy % (Botrytis cinerea [3]; alone, 0.2 ppm): 58%
Efficacy % (Botrytis cinerea [3]; alone, 1.0 ppm): 77%
Efficacy % (Cercospora beticola [11]; 0.008 ppm): 8%
Efficacy % (Cercospora beticola [11]; 0.04 ppm): 14%
Efficacy % (Cercospora beticola [11]; 0.2 ppm): 16%
Efficacy % (Cercospora beticola [11]; 1 ppm): 44%
Efficacy % (Cercospora beticola [11]; single compound, 0.04 ppm): 14% and 13%
Efficacy % (Cercospora beticola [11]; single compound, 1 ppm): 40% and 35%
Efficacy % (Colletotrichum coccodes; 0.008 ppm): 0%
Efficacy % (Colletotrichum coccodes; 0.04 ppm): 46%
Efficacy % (Colletotrichum coccodes; 0.2 ppm): 8%
Efficacy % (Colletotrichum coccodes; 1 ppm): 0%
Efficacy % (Colletotrichum coccodes; single active compound at 0.04 ppm): 0% and 1%

Cn1cc(C(=O)Nc2ccc(F)cc2-c2ccc(Cl)c(Cl)c2)c(C(F)F)n1 [(2.002) bixafen, bixafen]
Efficacy (Cordana musae [5]; 0.008 ppm): 17%
Efficacy (Cordana musae [5]; 0.04 ppm): 0%
Efficacy (Cordana musae [5]; 0.2 ppm): 0%
Efficacy (Cordana musae [5]; 1 ppm): 2%
Efficacy % (Cordana musae [5]; 0.008 ppm): 0%
Efficacy % (Cordana musae [5]; 0.04 ppm): 0%
Efficacy % (Cordana musae [5]; 0.2 ppm): 0%
Efficacy % ([6]; 0.2 ppm): 44%
Efficacy % ([7]; 0.008 ppm): 0%
Efficacy % ([7]; 0.04 ppm): 0%
Efficacy % ([7]; 0.2 ppm): 100%
Efficacy % ([7]; 1.0 ppm): 100%
Efficacy % ([1]; single active at 0.008 ppm): 6% and 0%
Efficacy % ([1]; single active at 0.04 ppm): 0%
Efficacy % ([1]; single active at 0.2 ppm): 0%
Efficacy % (Cercospora beticola [8]; 0.2 ppm): 0%
Efficacy % (Cercospora beticola [8]; 1.0 ppm): 0%
Efficacy (Alternaria alternata; 0.008 ppm): 13% and 23%
Efficacy (Alternaria alternata; 0.04 ppm): 67%
Efficacy (Alternaria alternata; 1 ppm): 59% and 85%
Efficacy % (Alternaria alternate; 0.008 ppm): 29%
Efficacy % (Alternaria alternate; 0.04 ppm): 23%
Efficacy % (Alternaria alternate; 0.2 ppm): 66%
Efficacy % (Alternaria alternate; 1.0 ppm): 46%
Efficacy (Fusarium culmorum [9]; 0.008 ppm alone): 2%
Efficacy (Fusarium culmorum [9]; 0.04 ppm alone): 17%
Efficacy (Fusarium culmorum [9]; single active compound, 0.008 ppm): 2%
Efficacy (Fusarium culmorum [9]; [14]): 7%
Efficacy (Fusarium culmorum [9]; [15]): 11%
Efficacy (Fusarium culmorum [9]; single active compound, 1 ppm): 18%
Efficacy % (Botrytis cinerea [10]; alone, 0.008 ppm): 6%
Efficacy % (Botrytis cinerea [10]; alone, 0.2 ppm): 0%
Efficacy % (Botrytis cinerea [10]; alone, 1 ppm): 66%
Efficacy (Diaporthe citri; 0.2 ppm): 0% and 5%
Efficacy (Diaporthe citri; 1.0 ppm): 0% and 5%
Efficacy % (Cordana musae [2]; single substance, 0.008 ppm): 0% and 8%
Efficacy % (Cordana musae [2]; single substance, 0.04 ppm): 2% and 0%
Efficacy % (Cordana musae [2]; single substance, 0.2 ppm): 0%
Efficacy % (Cordana musae [2]; single substance, 1.0 ppm): 0%
Efficacy (Botrytis cinerea [3]; 0.04 ppm): 22%
Efficacy (Botrytis cinerea [3]; 0.2 ppm): 63%
Efficacy (Botrytis cinerea [3]; 1.0 ppm): 67%
Efficacy % (Cercospora beticola [11]; 1 ppm): 0%
Efficacy % (Cercospora beticola [11]; single compound, 0.2 ppm): 14%
Efficacy % (Cercospora beticola [11]; single compound, 1 ppm): 20%
Efficacy % (Colletotrichum coccodes; 0.008 ppm): 33%
Efficacy % (Colletotrichum coccodes; 0.04 ppm): 45%
Efficacy % (Colletotrichum coccodes; 0.2 ppm): 0%
Efficacy % (Colletotrichum coccodes; 1 ppm): 0%
Efficacy % (Colletotrichum coccodes; single active compound at 0.008 ppm): 30%
